Assay results published in patent US10112918B2, “15-oxospiramilactone derivatives, preparation method and uses thereof” (Kunming Institute of Botany, The Chinese Academy of Sciences, priority 2013, dated 2018).
Read-outs that look alike come from different tables or passages of the source.

How the values were obtained:
Type in all cases: cell-based
[1] = system: HL-60 (human promyelocytic leukemia cells); assay: MTT inhibition of tumor cell growth, HL-60; details: Homo sapiens, HL-60, 48 h
Outline: (§1)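 Compound exposure lasts 48 h at 37° C on cells plated at 5000-10000 per well in serum-containing medium. Viability is read by MTT reduction at 595 nm, and IC50 is computed with the two-point Reed and Muench method.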

[2] = system: SMMC-7721 (human hepatoma cells); assay: MTT inhibition of tumor cell growth, SMMC-7721; details: Homo sapiens, SMMC-7721, 48 h
Outline: as §1

[3] = system: A-549 (Human lung adenocarcinoma cells); assay: MTT inhibition of tumor cell growth, A-549; details: Homo sapiens, A549, 48 h
Outline: as §1

[4] = system: MCF-7 (human breast cancer cells); assay: MTT inhibition of tumor cell growth, MCF-7; details: Homo sapiens, MCF7, 48 h
Outline: as §1

[5] = system: SW-480 (human colon cancer cells); assay: MTT inhibition of tumor cell growth, SW-480; details: Homo sapiens, SW480, 48 h
Outline: as §1

[6] = system: Wnt signaling pathway (Top-Flash reporter gene); assay: Top-Flash Wnt reporter gene assay in HEK293T cells with Wnt3a conditioned medium; details: Homo sapiens, HEK-293T, 6 h, HEK293T, Wnt3a conditioned medium, 6 h
Protocol: HEK293T cells were cultured in DMEM containing 10% fetal bovine serum (Invitrogen) at 37° C., 5% CO2. The cells were passaged every other day. The density was retained at 70˜80% during passage. L cell line (CRL-2647, purchased from the gene bank of ATCC, the US) and the control cell line (CRL-2648, purchased from ATCC, US), which stably secreted mouse Wnt3a protein, were cultured in DMEM containing 50 ug/ml G418 and 10% fetal bovine serum, at 37° C., 5% CO2. When the cells grew to a density of about 70%, the medium was replaced with DMEM containing 10% fetal bovine serum. After continuous culture for 4 days, the culture was collected and centrifuged, and the supernatant was kept so that the Wnt conditioned medium was obtained. After titration assay, the conditioned medium was quick-frozen in liquid nitrogen, and placed at −80° C. for long-term storage, so that the titer was kept unchanged.
The cells were seeded to a 48-well plate at a density of […] cells per well, and transfected 20 h later. The reagents for plasmid transfection were calculated based on the amount in each well of the 48-well plate as following: the total amount of plasmid was 125 ng/well; the plasmid was first added to a serum-free medium (25 μL/well) and mixed well; PLUS reagent (Invitrogen) was then added in an amount of 0.5 μL/well and mixed well, then stood for 15 min; Lipofectamine (Invitrogen) liposome was added in an amount of 0.5 μL/well to serum-free DMEM medium (25 μL/well), and then mixed with the solution containing the plasmid and the PLUS, and stood for 15 min. The cells were cultured in serum-free DMEM medium (100 μL/well), and the final mixture of plasmid, PLUS and Lipofectamine were added to the cells. After incubation for 3 h, the transfection was stopped by the medium containing 10% fetal bovine serum (200 μL/well).
The HEK293T cells used for activity assay of the report gene were transfected by the method as shown in 2). Activity assay of Wnt reporter gene: the amount of plasmid for transfection was 5 ng/well for TOP-flash and 5 ng/well for GFP plasmid as internal standard, with lacZ added to reach a total amount of 125 ng/well. […] After treating for 6 h, Boehringer Mannheim Luci-ferase Assay Kit was used to lyse cells (200 μL/well). 50 μL from each well was pipetted into a 96-well plate. The indensity of GFP protein in the cell lysate was measured by fluorimeter FL600 (BIO-TEK Inc. Winooski, Vt.), and taken as internal standard for cell transfection efficiency. 10 μL substrate of luciferase was then added to each well, and the activity of luciferase was measured by Micro Lumate Plus (Perkin Elmer Inc. Wellesley, Mass.) luminometer. Finally, GFP indensity was used as internal standard to calibrate the activity of luciferase, i.e. the activity of Wnt reporter gene.
Calculation of IC50 (taking the calculation of IC50 of the Wnt signaling pathway for example): background (the activity as measured in the groups treated with a conditioned medium containing DMSO only) was subtracted from the reporter gene activity as measured in the groups treated by Wnt3a conditioned medium with or without the compound to be tested at different concentrations; and the obtained value was defined as the activity of the reporter gene induced by Wnt or the residual activity of the reporter gene after adding the compound to be tested. The residual activity was normalized by the activity induced by Wnt to get the relative residual activity. Then combine with the concentrations of the compound to be tested to plot a linear graph, and a dose-effect curve was fitted based on 4-parameter logistic fit. IC50 of the Wnt signaling pathway is determined as the concentration at which the relative residual activity is 0.5.

[7] = Table 2, derivatives having potential Michael reaction acceptor
[8] = Table 2, derivatives having potential Michael reaction acceptor, read-out: IC50 SW-480
[9] = Table 9, read-out: IC50(μM), inhibitory activity on the Wnt signaling pathway
[10] = Table 5, derivatives having double Michael reaction acceptor
[11] = Table 5, derivatives having double Michael reaction acceptor, read-out: IC50 SW-480
[12] = Table 3, single Michael reaction acceptor, modified lactonic ring
[13] = Table 3, single Michael reaction acceptor, modified lactonic ring, read-out: IC50 SW-480
[14] = Table 6, 7-hydroxyl derivatives and controls, read-out: IC50 SW-480, 7-hydroxyl derivatives
[15] = Table 8, read-out: IC50 (μM), inhibitory activity on the Wnt signaling pathway
[16] = Table 6, 7-carbonyl derivatives, read-out: IC50 SW-480, 7-carbonyl derivatives
[17] = Table 6, double Michael reaction acceptor derivatives, read-out: IC50 SW-480, derivatives having double Michael reaction acceptor
[18] = Table 10, read-out: IC50 (μM), inhibitory activity on the Wnt signaling pathway
[19] = Table 4, derivatives obtained by reduction of the lactonic ring
[20] = Table 4, derivatives obtained by reduction of the lactonic ring, read-out: IC50 SW-480

| IC50 [1, 7] [µM] | IC50 [2, 7] [µM] | IC50 [3, 7] [nM] | IC50 [4, 7] [nM] | IC50 [5, 8] [nM] | IC50 [6, 9] [µM] | IC50 [1, 12] [µM] | IC50 [2, 12] [µM] | IC50 [3, 12] [nM] | IC50 [4, 12] [nM] | IC50 [5, 13] [nM] | IC50 [6, 15] [µM] | Structure (SMILES) | other results |
| --- | --- | --- | --- | --- | --- | --- | --- | --- | --- | --- | --- | --- | --- |
| 3.82 | 1.96 | 3030 | 2630 | 2380 | 20.1 ± 1.32 |  |  |  |  |  |  | C=C1C(=O)[C@]23CC[C@H]1CC2[C@@]12CCC[C@@](C)(COC1=O)C2[C@H](Cl)C3=O (stereo partly shown) [Compound 14] |  |
|  |  |  |  |  | 11.1 ± 0.63 |  |  |  |  |  |  | C=C1C(=O)[C@]23CC[C@H]1CC2[C@@]12CCC[C@@](C)(COC1=O)C2=CC3=O (stereo partly shown) [Compound 15] | IC50 [1, 10]: 0.8 µM; IC50 [2, 10]: 0.8 µM; IC50 [3, 10]: 910 nM; IC50 [4, 10]: 1440 nM; IC50 [5, 11]: 1210 nM |
| 5.56 | 12 | 4770 | 3090 | 11400 | 8.27 ± 1.24 |  |  |  |  |  |  | C=C1C(=O)[C@@]23CC[C@@H](CC2[C@@]24CCC[C@@](C)(COC2=O)C14)C(=C)[C@@H]3O (stereo partly shown) [Compound 16] |  |
|  |  |  |  |  |  | 4.2 | 1.87 | 3170 | 5040 | 4190 | 27.4 ± 0.98 | C=C1C(=O)[C@]23CC[C@H]1CC2[C@@]12CCC[C@@](C)(CO[C@H]1OC)C2C[C@H]3O (stereo partly shown) [Compound 21] | IC50 [5, 14]: 2900 nM |
|  |  |  |  |  |  | 1.46 | 0.51 | 670 | 1570 | 2200 | 17.6 ± 1.9 | C=C1C(=O)[C@]23CC[C@H]1CC2[C@@]12CCC[C@@](C)(CO[C@H]1OC)C2CC3=O (stereo partly shown) [Compound 22] | IC50 [5, 16]: 2560 nM |
|  |  |  |  |  | 6.72 ± 1.11 |  |  |  |  |  |  | C=C1C(=O)[C@@]23CC[C@@H](CC2[C@@]24CCC[C@@](C)(CO[C@H]2OC)C14)C(=C)C3=O (stereo partly shown) [Compound 23] | IC50 [1, 10]: 0.51 µM; IC50 [2, 10]: 0.15 µM; IC50 [3, 10]: 200 nM; IC50 [4, 10]: 240 nM; IC50 [5, 11]: 390 nM; IC50 [5, 17]: 790 nM |
|  |  |  |  |  |  | 4.87 | 4.92 | 3250 | 4000 | 6330 | 21.7 ± 0.63 | C=C1C(=O)[C@]23CC[C@H]1CC2[C@@]12CCC[C@@](C)(COC1)C2C[C@H]3O (stereo partly shown) [Compound 25] | IC50 [5, 14]: 4120 nM |
| 4.9 | 4.62 | 2970 | 2850 | 2370 |  | 4.9 | 4.62 | 2970 | 2850 | 2370 | 9.12 ± 0.21 | C=C1C(=O)[C@]23CC[C@H]1CC2[C@@]12CCC[C@@](C)(COC1)C2CC3=O (stereo partly shown) [Compound 28] | IC50 [5, 16]: 2060 nM |
| 1.94 | 1.9 | 770 | 1440 | 1530 |  |  |  |  |  |  |  | C=C1C(=O)[C@]23CC[C@H]1CC2[C@@]12CCC[C@@](C)(COC1)C2[C@H](CO)C3=O (stereo partly shown) [Compound 30] | IC50 [6, 18]: 15.4 ± 1.5 µM |
| 3.6 | 4.44 | 6110 | 8860 | 5430 | 7.1 ± 0.7 |  |  |  |  |  |  | C=C1C(=O)[C@@]23CC[C@@H](CC2[C@@]24CCC[C@@](C)(COC2)C14)C(=C)C3=O (stereo partly shown) [Compound 31] | IC50 [1, 10]: 1.31 µM; IC50 [2, 10]: 1.79 µM; IC50 [3, 10]: 760 nM; IC50 [4, 10]: 1710 nM; IC50 [5, 11]: 620 nM; IC50 [5, 17]: 450 nM |
| 3.45 | 3.12 | 2220 | 2020 | 1580 |  |  |  |  |  |  |  | C=C1C(=O)[C@]23CC[C@H]1CC2[C@@]12CCC[C@@](C)(COC1)C2[C@H](COS(C)(=O)=O)C3=O (stereo partly shown) [Compound 32] | IC50 [6, 18]: 19.8 ± 1.04 µM |
|  |  |  |  |  |  | 17 | 10.9 | 13700 | 18500 | 24600 | 18.1 ± 2.67 | C=C1C(=O)C23CC[C@H]1CC2[C@@]12CCC[C@@]4(C)CO[C@@H]1O[C@@H]3CC42 (stereo partly shown) [Compound 36] |  |
|  |  |  |  |  |  | > 40 | > 40 | > 40000 | > 40000 | > 40000 | > 60 | C=C1C(=O)C23CC[C@H]1CC2[C@]1(C(=O)O)CCC[C@@](C)(CO)C1C[C@H]3O (stereo partly shown) [Compound 38] |  |
|  |  |  |  |  |  | 28.8 | 34.8 | 17500 | 21500 | 20700 | > 60 | C=C1C(=O)C23CC[C@H]1CC2[C@@]12CCC[C@@](C)(C(=O)OC1=O)C2CC3=O (stereo partly shown) [Compound 39] |  |
|  |  |  |  |  |  | 1.58 | 0.9 | 2180 | 2240 | 2090 | > 60 | C=C1C(=O)C23CC[C@H]1CC2[C@@]12CCC[C@@](C)(COS(=O)OC1)C2C[C@H]3O (stereo partly shown) [Compound 41] | IC50 [5, 14]: 2090 nM |
|  |  |  |  |  | 12.8 ± 0.13 |  |  |  |  |  |  | C=C1C(=O)C23CC[C@@H](CC2[C@@]24CCC[C@@](C)(COS(=O)OC2)C14)C(=C)C3=O (stereo partly shown) [Compound 43] | IC50 [1, 10]: 0.68 µM; IC50 [2, 10]: 0.16 µM; IC50 [3, 10]: 580 nM; IC50 [4, 10]: 780 nM; IC50 [5, 11]: 590 nM; IC50 [5, 17]: 340 nM |
|  |  |  |  |  |  |  |  |  |  |  | 9.98 ± 1 | C=C1C(=O)C23CC[C@H]1CC2[C@]1(COC(C)=O)CCC[C@@](C)(COC(C)=O)C1C[C@H]3O (stereo partly shown) [Compound 45] | IC50 [1, 19]: 4.74 µM; IC50 [2, 19]: 7.83 µM; IC50 [3, 19]: 3490 nM; IC50 [4, 19]: 4820 nM; IC50 [5, 20]: 9890 nM; IC50 [5, 14]: 2810 nM |
|  |  |  |  |  |  |  |  |  |  |  |  | C=C1C(=O)C23CC[C@H]1CC2[C@]1(CO)CCC[C@@](C)(CO)C1C[C@H]3O (stereo partly shown) [Compound 46] | IC50 [1, 19]: 4.28 µM; IC50 [2, 19]: 4.48 µM; IC50 [3, 19]: 4280 nM; IC50 [4, 19]: 8070 nM; IC50 [5, 20]: 4420 nM; IC50 [6, 18]: 27.7 ± 2.8 µM |
